Like-named read-outs stand apart in the source and are kept apart here.
Assays:
Assay type in all cases: cell-based
[1] = system: LNCaP_Vancouver prostate cells; assay: In Vitro LNCaP Vancouver Prostate Cell Proliferation Assay in Lipid Reduced Medium; conditions: Prostate cell; 10% lipid reduced serum, 96 h, ATP-glow luminescence; read-out: pIC50 LNCaP_Vancouver prostate cell (converted)
Description: LNCaP_Vancouver prostate cells were obtained from the Vancouver Prostate Cancer Centre.
The next day 10 μl of test compound/DMSO diluted in medium was added (3E-5M, 1E-5M, 3E-6M,1E-6M, 3E-7M, 1E-7M, 3E-8M, 1E-8M final concentration). Compounds were tested in duplicate. After 96 h incubation at 37° C., 5% CO2 25 μl ATP-glow mix was added. The plate was incubated for 30 min at 37° C. and luminescence was measured with the Envision.
Analysis: Determination of pIC50 Values
pIC50 values were calculated as follows. Raw data generated by the instruments were normalized to % Controlmin values, which were calculated as: % Controlmin=100*(x−mLC)/(mHC−mLC),
where mLC and mHC are the means of the low control wells and high control wells on the plate, after manual exclusion of outliers. The relation between the % Controlmin values and concentration was fitted to a 4-parameter logistic curve using a non-linear least squares regression method to determine the pIC50 value. Outlying data points were excluded manually to get a correct fit. The pIC50 corresponds to −log 10(IC50), if the IC50 is expressed in molar units (http://www.ncbi.nlm.nih.qovibooks/NBK91994). The IC50 parameter was always determined by non-linear regression, but one or more of the other parameters may have been held fixed on a relevant input value, such as 0 for the bottom values.

A2780 ovarian cells = assay: A2780 Ovarian Cell Proliferation Assay in Lipid Reduced Medium, with and without Palmitate (MTT); conditions: Homo sapiens, 10% lipid-reduced serum, 96 h
[2] = system: PC-3M-Luc-C6 prostate cells; assay: In Vitro PC-3M-Luc-C6 Prostate Cell Proliferation Assay in Lipid Reduced Medium; conditions: Prostate cell, read-out: pIC50 PC-3M-Luc-C6 prostate cell (converted); 10% lipid reduced serum, 96 h, ATP-glow luminescence
[3] = 25 μM palmitate added (control), read-out: pIC50 With Palmitate (converted)
[4] = no palmitate, read-out: pIC50 Without Palmitate (converted)

Compound	IC50 [1]	IC50 (A2780 ovarian cells; [3])	IC50 (A2780 ovarian cells; [4])	IC50 [2]
Cn1cc(-c2ccc(-c3ccc(C4=NC(C)(C)C(=O)N4CC4CN(C(=O)C5CC5)C4)cc3)cc2)cn1 [Compound 17, 1-((1-(cyclopropanecarbonyl)azetidin-3-yl)methyl)-4,4-dimethyl-2-(4′-(1-methyl-1H-pyrazol-4-yl)-[1,1′-biphenyl]-4-yl)-1H-imidazol-5(4H)-one]	8910 nM	> 10000 nM	2510 nM	1820 nM
Cn1cc(-c2ccc(-c3ccc(C4=NC(C)(C)C(=O)N4C[C@@H]4CCN(C(=O)C5CC5)C4)cc3)cc2)cn1 [Compound 16, (R)-1-((1-(cyclopropanecarbonyl)pyrrolidin-3-yl)methyl)-4,4-dimethyl-2-(4′-(1-methyl-1H-pyrazol-4-yl)-[1,1′-biphenyl]-4-yl)-1H-imidazol-5(4H)-one]	331 nM	> 10000 nM	186 nM	174 nM
CC1(c2ccccc2)N=C(c2ccc(-c3ccc4occc4c3)cc2)N(C[C@@H]2CCN(C(=O)C3CC3)C2)C1=O (mixture of isomers) [Compound 5, (4RS)-2-(4-(Benzofuran-5-yl)phenyl)-1-(((R)-1-(cyclopropanecarbonyl)pyrrolidin-3-yl)methyl)-4-methyl-4-phenyl-1H-imidazol-5(4H)-one]	4370 nM	> 10000 nM	2000 nM	~1860 nM
CC1(C)N=C(c2ccc(-c3nc4ccccc4o3)cc2)N(C[C@@H]2CCN(C(=O)C3CC3)C2)C1=O [Compound 11, (R)-2-(4-(benzo[d]oxazol-2-yl)phenyl)-1-((1-(cyclopropanecarbonyl)pyrrolidin-3-yl)methyl)-4,4-dimethyl-1H-imidazol-5(4H)-one]	~10000 nM	> 10000 nM	3720 nM	~2000 nM

Other lines, results leading:

IC50 [1]	IC50 (A2780 ovarian cells; [3])	IC50 (A2780 ovarian cells; [4])	IC50 [2]	Compound
200 nM	> 10000 nM	14.1 nM	~24 nM	CC1(C)N=C(c2ccc(-c3ccc4cccnc4c3)cc2F)N(C[C@@H]2CCN(C(=O)C3CC3)C2)C1=O [Compound 49, (R)-1-((1-(cyclopropanecarbonyl)pyrrolidin-3-yl)methyl)-2-(2-fluoro-4-(quinolin-7-yl)phenyl)-4,4-dimethyl-1H-imidazol-5(4H)-one]
269 nM	> 10000 nM	~91.2 nM	95.5 nM	CC1(C)N=C(c2ccc(-c3ccc4cccnc4c3)cc2F)N(CC2CN(C(=O)C3CC3)C2)C1=O [Compound 39, 1-((1-(cyclopropanecarbonyl)azetidin-3-yl)methyl)-2-(2-fluoro-4-(quinolin-7-yl)phenyl)-4,4-dimethyl-1H-imidazol-5(4H)-one]
759 nM	> 10000 nM	178 nM	158 nM	CC1(C)N=C(c2ccc(-c3ccc(-c4ccncc4)cc3)cc2)N(C[C@@H]2CCN(C(=O)C3CC3)C2)C1=O [Compound 15, (R)-1-((1-(cyclopropanecarbonyl)pyrrolidin-3-1)methyl)-4,4-dimethyl-2-(4′-(pyridin-4-yl)-[1,1′-biphenyl]-4-yl)-1H-imidazol-5(4H)-one]
3630 nM	> 10000 nM	~741 nM	933 nM	COCC1(C)N=C(c2ccc(-c3ccc4c(cnn4C)c3)cc2)N(C[C@@H]2CCN(C(=O)C3CC3)C2)C1=O (mixture of isomers) [Compound 10, (4RS)-1-(((R)-1-(cyclopropanecarbonyl)pyrrolidin-3-yl)methyl)-4-(methoxymethyl)-4-methyl-2-(4-(1-methyl-1H-indazol-5-yl)phenyl)-1H-imidazol-5(4H)-one]
813 nM	> 10000 nM	~269 nM	224 nM	CC1(C)N=C(c2ccc(-c3ccc(-c4ccncc4)cc3)cc2F)N(CC2CN(C(=O)C3CC3)C2)C1=O [Compound 22, 1-((1-(cyclopropanecarbonyl)azetidin-3-yl)methyl)-2-(3-fluoro-4′-(pyridin-4-yl)-[1,1′-biphenyl]-4-yl)-4,4-dimethyl-1H-imidazol-5(4H)-one]

Source: US10413545B2, “Imidazolin-5-one derivative useful as FASN inhibitors for the treatment of cancer” (Janssen Pharmaceutica NV, priority 2013, dated 2019)
